According to the NIST ThermoML archive (doi:10.1016/j.jct.2008.01.028):
± gives the expanded uncertainty stated by the source.

Test: wn = mass fraction of the nth substance listed
Details: Liquid

CN(CCO)CCO [N-methyldiethanolamine] + O
mass density (298.31 K, 205 kPa, w1 = 0.3): 1023.7 ± 0.7 kg/m3
mass density (298.31 K, 506 kPa, w1 = 0.3): 1023.8 ± 0.7 kg/m3
mass density (298.31 K, 1006 kPa, w1 = 0.3): 1024 ± 0.7 kg/m3
mass density (298.31 K, 2006 kPa, w1 = 0.3): 1024.3 ± 0.8 kg/m3
mass density (298.32 K, 5003 kPa, w1 = 0.3): 1025.5 ± 0.8 kg/m3
mass density (298.33 K, 206 kPa, w1 = 0.15): 1009.9 ± 0.6 kg/m3
mass density (298.33 K, 508 kPa, w1 = 0.15): 1010 ± 0.6 kg/m3
mass density (298.33 K, 1008 kPa, w1 = 0.15): 1010.2 ± 0.6 kg/m3
mass density (298.33 K, 2008 kPa, w1 = 0.15): 1010.6 ± 0.6 kg/m3
mass density (298.34 K, 5006 kPa, w1 = 0.15): 1011.9 ± 0.6 kg/m3
